Consider ten compounds from ChEMBL document CHEMBL6083275, “Discovery and evaluation of HW161023 as a potent and orally active AAK1 inhibitor” (Bioorg Med Chem Lett, 2024).

Data set [1] has as its target AP2-associated protein kinase 1 (Homo sapiens, UniProt Q2M2I8). Put plainly: Inhibition of AAK1 (unknown origin).
Data set [2] in a line: Half-life in dog at 1 mg/kg, iv. The data set is classed as ADME, organism-based, Canis lupus familiaris. The settings on record: in vivo.
Data set [3] can be described thus: Half-life in rat at 1 mg/kg, iv. The data set is classed as ADME, organism-based. As to conditions: in vivo.
The nature of data set [4]: Metabolic stability in rat liver microsomes assessed as half-life. Format: ADME, Microsome.
Data set [5] can be described thus: Apparent volume of distribution in C57BL/6J mouse at 1 mg/kg, iv. Format: ADME, organism-based. The settings on record: in vivo, read-out: Vz.
Data set [6] is described as follows: Protein binding in human plasma assessed as unbound fraction. Format: ADME, cell-free.
The target in data set [7] is T1, CYP3A4 (Homo sapiens, UniProt P08684). In words: Inhibition of CYP3A4 (unknown origin) using midazolam as substrate at 10 uM relative to control. Format: ADME. As to conditions: probe midazolam.
Data set [8] is described as follows: Oral bioavailability in dog at 5 mg/kg. As to conditions: in vivo. The data set is classed as ADME, organism-based, Canis lupus familiaris.
Data set [9] is described as follows: AUC (0 to 24 hrs) in dog at 5 mg/kg, po. As to conditions: in vivo. Format: ADME, organism-based, Canis lupus familiaris.
The nature of data set [10]: Clearance in dog at 1 mg/kg, iv. Format: ADME, organism-based, Canis lupus familiaris. As to conditions: in vivo.
Data set [11] can be described thus: Protein binding in dog plasma assessed as unbound fraction. The data set is classed as ADME, cell-free, Canis lupus familiaris.
Data set [12] is described as follows: Half-life in C57BL/6J mouse at 10 mg/kg, po. The data set is classed as ADME, organism-based. The settings on record: in vivo.
Data set [13] can be described thus: Metabolic stability in mouse liver microsomes assessed as half-life. Format: ADME, Microsome.
The nature of data set [14]: AUC (0 to 24 hrs) in rat at 10 mg/kg, po. As to conditions: in vivo. The data set is classed as ADME, organism-based.
Data set [15] is described as follows: Oral bioavailability in C57BL/6J mouse at 10 mg/kg. The data set is classed as ADME, organism-based. As to conditions: in vivo.
Data set [16] can be described thus: AUC (0 to 24 hrs) in C57BL/6J mouse at 1 mg/kg, iv. The settings on record: in vivo. Format: ADME, organism-based.
The nature of data set [17]: Cmax in C57BL/6J mouse at 10 mg/kg, po. Format: ADME, organism-based. The settings on record: in vivo.
The nature of data set [18]: AUC (0 to 24 hrs) in C57BL/6J mouse at 10 mg/kg, po. The data set is classed as ADME, organism-based. As to conditions: in vivo.
The target in the next data set is CYP2D6 (Homo sapiens, UniProt P10635). In words: Inhibition of CYP2D6 (unknown origin) at 10 uM relative to control. Format: ADME.
Data set [19] deals with T1, CYP3A4. Put plainly: Inhibition of CYP3A4 (unknown origin) using testosterone as substrate at 10 uM relative to control. The data set is classed as ADME. As to conditions: probe testosterone.
A short description of data set [20]: Clearance in C57BL/6J mouse at 1 mg/kg, iv. Format: ADME, organism-based. As to conditions: in vivo.
Data set [21] addresses Voltage-gated inwardly rectifying potassium channel KCNH2 (Homo sapiens, UniProt Q12809). In words: Inhibition of human ERG by patch clamp assay. The data set is classed as toxicity.
Data set [22] can be described thus: Cytotoxicity against human HepG2 cells. Format: toxicity, cell-based.
Data set [23] can be described thus: Ratio of AUC (0 to 24 hrs) in C57BL/6J mouse brain to plasma. Format: ADME. As to conditions: read-out: Ratio AUC.
A short description of data set [24]: Metabolic stability in dog liver microsomes assessed as half-life. Format: ADME, Canis lupus familiaris, Microsome.
Data set [25] in a line: Protein binding in mouse plasma assessed as unbound fraction. The data set is classed as ADME, cell-free.
The nature of data set [26]: Tmax in dog at 5 mg/kg, po. The data set is classed as ADME, organism-based, Canis lupus familiaris. The settings on record: in vivo.
Data set [27] in a line: Clearance in rat at 1 mg/kg, iv. Format: ADME, organism-based. The settings on record: in vivo.
Data set [28] in a line: Apparent volume of distribution in dog at 1 mg/kg, iv. The settings on record: in vivo, read-out: Vz. Format: ADME, organism-based, Canis lupus familiaris.
Data set [29] is described as follows: Metabolic stability in human liver microsomes assessed as half-life. The data set is classed as ADME, Microsome.
A short description of data set [30]: Tmax in rat at 10 mg/kg, po. Format: ADME, organism-based. As to conditions: in vivo.
A short description of data set [31]: Tmax in C57BL/6J mouse at 10 mg/kg, po. As to conditions: in vivo. The data set is classed as ADME, organism-based.
Data set [32] can be described thus: Oral bioavailability in rat at 10 mg/kg. Format: ADME, organism-based. As to conditions: in vivo.
Data set [33] can be described thus: Apparent volume of distribution in rat at 1 mg/kg, iv. Format: ADME, organism-based. The settings on record: in vivo, read-out: Vz.
Data set [34] can be described thus: Half-life in C57BL/6J mouse at 1 mg/kg, iv. The settings on record: in vivo. The data set is classed as ADME, organism-based.
Data set [35] can be described thus: Protein binding in rat plasma assessed as unbound fraction. The data set is classed as ADME, cell-free.
In a further data set the target is CYP2C9 (Homo sapiens, UniProt P11712). In words: Inhibition of CYP2C9 (unknown origin) at 10 uM relative to control. The data set is classed as ADME.
Chain of CYP2C9 (P11712 whole entry): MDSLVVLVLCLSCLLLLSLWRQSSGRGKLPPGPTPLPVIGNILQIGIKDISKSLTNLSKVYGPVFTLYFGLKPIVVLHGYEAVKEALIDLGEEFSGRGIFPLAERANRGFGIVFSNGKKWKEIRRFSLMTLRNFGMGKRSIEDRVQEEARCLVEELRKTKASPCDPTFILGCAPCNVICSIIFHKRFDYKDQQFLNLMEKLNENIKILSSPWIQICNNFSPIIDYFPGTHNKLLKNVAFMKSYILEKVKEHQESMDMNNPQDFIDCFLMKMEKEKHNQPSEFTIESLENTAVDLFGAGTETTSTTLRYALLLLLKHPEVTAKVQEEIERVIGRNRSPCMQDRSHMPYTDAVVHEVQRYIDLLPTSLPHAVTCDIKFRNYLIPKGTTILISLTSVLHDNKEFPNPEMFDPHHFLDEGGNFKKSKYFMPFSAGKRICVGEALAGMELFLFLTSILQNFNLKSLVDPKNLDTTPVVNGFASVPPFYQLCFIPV

T1 sequence (P08684 whole entry): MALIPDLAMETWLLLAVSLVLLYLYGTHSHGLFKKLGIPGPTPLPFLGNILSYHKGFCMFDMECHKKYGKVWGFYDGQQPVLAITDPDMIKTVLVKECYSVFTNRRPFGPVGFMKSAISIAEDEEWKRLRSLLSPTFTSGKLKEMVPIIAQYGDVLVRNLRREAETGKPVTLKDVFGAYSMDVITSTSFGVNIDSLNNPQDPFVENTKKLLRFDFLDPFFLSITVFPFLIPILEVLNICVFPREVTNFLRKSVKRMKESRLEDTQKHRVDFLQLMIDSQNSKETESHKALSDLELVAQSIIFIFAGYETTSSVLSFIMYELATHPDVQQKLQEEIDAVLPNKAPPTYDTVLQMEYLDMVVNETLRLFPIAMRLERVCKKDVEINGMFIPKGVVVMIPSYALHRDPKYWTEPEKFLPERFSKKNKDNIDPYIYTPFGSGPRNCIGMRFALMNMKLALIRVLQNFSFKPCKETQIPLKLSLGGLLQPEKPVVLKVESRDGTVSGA
Chain of AP2-associated protein kinase 1 (Q2M2I8 whole entry): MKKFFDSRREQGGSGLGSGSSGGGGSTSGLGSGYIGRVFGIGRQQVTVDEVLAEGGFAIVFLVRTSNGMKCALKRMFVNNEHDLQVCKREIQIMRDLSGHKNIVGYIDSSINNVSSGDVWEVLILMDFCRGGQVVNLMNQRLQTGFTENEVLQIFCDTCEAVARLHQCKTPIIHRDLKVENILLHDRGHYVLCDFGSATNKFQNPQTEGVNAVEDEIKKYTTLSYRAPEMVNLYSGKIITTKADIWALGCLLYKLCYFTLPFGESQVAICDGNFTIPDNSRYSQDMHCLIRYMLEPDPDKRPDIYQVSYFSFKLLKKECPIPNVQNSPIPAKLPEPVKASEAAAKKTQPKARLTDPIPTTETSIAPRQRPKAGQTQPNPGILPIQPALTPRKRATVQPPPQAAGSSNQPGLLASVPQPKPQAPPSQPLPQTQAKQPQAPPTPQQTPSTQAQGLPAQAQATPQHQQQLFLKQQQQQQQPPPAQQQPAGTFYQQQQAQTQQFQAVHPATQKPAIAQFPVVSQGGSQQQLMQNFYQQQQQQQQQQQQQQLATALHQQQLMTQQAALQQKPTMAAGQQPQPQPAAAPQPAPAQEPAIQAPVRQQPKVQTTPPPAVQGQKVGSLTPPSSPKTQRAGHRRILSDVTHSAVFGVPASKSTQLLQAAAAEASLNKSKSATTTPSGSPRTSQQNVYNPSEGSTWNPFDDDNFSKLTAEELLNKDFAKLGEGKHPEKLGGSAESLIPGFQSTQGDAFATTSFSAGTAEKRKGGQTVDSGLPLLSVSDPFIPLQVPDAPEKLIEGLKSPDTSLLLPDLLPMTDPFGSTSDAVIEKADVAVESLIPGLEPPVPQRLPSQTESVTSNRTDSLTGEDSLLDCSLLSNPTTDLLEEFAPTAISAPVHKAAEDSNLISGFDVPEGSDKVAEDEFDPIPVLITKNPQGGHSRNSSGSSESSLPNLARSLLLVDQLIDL
Chain of Voltage-gated inwardly rectifying potassium channel KCNH2 (Q12809 whole entry): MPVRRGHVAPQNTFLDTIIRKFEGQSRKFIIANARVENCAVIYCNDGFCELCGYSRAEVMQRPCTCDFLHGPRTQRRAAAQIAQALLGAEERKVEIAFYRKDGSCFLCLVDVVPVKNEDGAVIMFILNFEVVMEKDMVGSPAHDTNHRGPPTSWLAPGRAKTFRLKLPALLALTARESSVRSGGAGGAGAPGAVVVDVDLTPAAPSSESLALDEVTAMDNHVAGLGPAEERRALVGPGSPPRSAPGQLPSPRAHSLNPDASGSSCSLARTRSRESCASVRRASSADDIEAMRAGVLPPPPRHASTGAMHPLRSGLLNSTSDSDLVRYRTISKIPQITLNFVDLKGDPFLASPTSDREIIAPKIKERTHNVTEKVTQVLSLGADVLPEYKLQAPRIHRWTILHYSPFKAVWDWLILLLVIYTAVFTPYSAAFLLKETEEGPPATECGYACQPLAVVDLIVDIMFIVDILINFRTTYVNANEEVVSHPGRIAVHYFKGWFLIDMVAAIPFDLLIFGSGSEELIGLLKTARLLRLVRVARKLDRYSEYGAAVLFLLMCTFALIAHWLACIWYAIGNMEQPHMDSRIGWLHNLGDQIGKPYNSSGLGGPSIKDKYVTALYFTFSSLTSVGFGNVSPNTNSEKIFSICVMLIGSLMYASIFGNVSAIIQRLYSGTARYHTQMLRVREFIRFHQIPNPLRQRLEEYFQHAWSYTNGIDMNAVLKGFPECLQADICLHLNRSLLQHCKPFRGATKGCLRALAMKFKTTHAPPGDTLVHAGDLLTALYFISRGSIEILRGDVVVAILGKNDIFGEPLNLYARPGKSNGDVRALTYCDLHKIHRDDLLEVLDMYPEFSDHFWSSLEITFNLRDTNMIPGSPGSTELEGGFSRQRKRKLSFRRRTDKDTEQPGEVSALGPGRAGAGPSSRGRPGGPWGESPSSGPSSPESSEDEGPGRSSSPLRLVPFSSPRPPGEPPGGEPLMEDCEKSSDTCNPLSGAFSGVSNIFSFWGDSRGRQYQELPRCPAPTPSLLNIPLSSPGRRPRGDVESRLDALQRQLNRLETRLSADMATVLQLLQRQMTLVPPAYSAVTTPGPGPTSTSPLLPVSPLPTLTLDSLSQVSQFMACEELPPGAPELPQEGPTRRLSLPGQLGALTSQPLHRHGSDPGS
Chain of CYP2D6 (P10635 whole entry): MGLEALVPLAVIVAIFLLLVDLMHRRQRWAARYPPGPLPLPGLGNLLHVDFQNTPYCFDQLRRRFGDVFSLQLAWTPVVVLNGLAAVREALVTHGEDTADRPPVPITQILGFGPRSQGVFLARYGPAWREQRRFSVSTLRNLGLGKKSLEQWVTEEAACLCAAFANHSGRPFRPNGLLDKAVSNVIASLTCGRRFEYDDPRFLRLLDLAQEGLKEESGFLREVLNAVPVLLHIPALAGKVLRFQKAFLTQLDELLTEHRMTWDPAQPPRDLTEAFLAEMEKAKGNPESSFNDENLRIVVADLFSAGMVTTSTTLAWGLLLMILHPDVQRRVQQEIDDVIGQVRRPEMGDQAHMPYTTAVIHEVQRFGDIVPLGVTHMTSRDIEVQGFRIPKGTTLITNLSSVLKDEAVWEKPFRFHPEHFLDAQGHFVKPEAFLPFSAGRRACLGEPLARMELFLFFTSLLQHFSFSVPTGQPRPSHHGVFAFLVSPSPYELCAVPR

For the compound `Cc1cn2c(OC[C@@](C)(N)CC(C)C)ccc(-c3ccnc(C(F)F)c3)c2n1`, the IC50 in [1] is above 0.02 µM.
The same measure, in the same setting: next, `CC(C)C[C@](C)(N)COc1ccc(-c2ccnc(C(F)F)c2)n2ccnc12`: above 0.02 µM; `Cc1cnc2c(-c3ccnc(C(F)F)c3)ccc(OC[C@@](C)(N)CC(C)C)n12`: above 0.02 µM.
In data set [1], `CC(C)C[C@](C)(N)COc1ccc(-c2ccnc(C(F)F)c2)c2cnccc12` had an IC50 above 0.05 µM.
The same measure, in the same setting: then `CC(C)C[C@](C)(N)COc1ccc(-c2ccnc(C(F)F)c2)c2nc(C(F)F)cn12`, with above 0.02 µM; and `CC(C)C[C@](C)(N)COc1ccc(-c2ccnc(C(F)F)c2)n2cnnc12`, with above 0.02 µM.
`CC(C)C[C@](C)(N)COc1ccc(-c2ccnc(C(F)F)c2)nc1C(F)F` [PILAVAPADIN]: the half-life in data set [2] is 3.2 h; in data set [3], 9.9 h; in [4] it was 1.61 h; in [12], 19.6 h; in data set [13] it was 2.61 h; in data set [24], 1.11 h. In addition, the half-life in data set [29] was 2.21 h; in [34], 17.3 h. For the same compound, the Vd turned out to be 18 L/kg in data set [5], 5.3 L/kg in data set [28] and 25 L/kg in [33]. For the same compound, the fraction unbound was determined as 0.0875 in data set [6], 0.0417 in [11], 0.02 in data set [25] and 0.0894 in data set [35]. The inhibition at 10 µM against CYP3A4 [7], at CYP2D6, at CYP3A4 [19] and against CYP2C9 was below 20% throughout. For the same compound, the bioavailability in data set [8] was 116%; in [15] it was 103%; in data set [32], 77%. The AUC(0-t) in data set [9] is 4.74 µg·h/mL; in data set [14], 3.79 µg·h/mL; in data set [16] it was 0.892 µg·h/mL; in data set [18], 9.15 µg·h/mL. The clearance in [10] was 1.2 L/h/kg; in data set [20], 0.73 L/h/kg; in data set [27] it was 1.7 L/h/kg. Moreover, the Cmax in data set [17] was found to be 0.718 µg/mL. In addition, the values for the IC50 in data set [21], in data set [22] and in data set [1] were 3.4 µM, 9.5 µM and 0.005 µM, respectively. Moreover, the Kp in data set [23] was found to be 13.9. Also, the Tmax in data set [26] came to 2.3 h; in data set [30] it was 6.7 h; in [31] it was 1.17 h.
In turn, `CC(C)C[C@](C)(N)COc1ccc(-c2ccnc(C(F)F)c2)c2cncn12` had a half-life in data set [12] of 3.2 h. In [17], this compound registered a Cmax of 0.407 µg/mL. For the same compound, the AUC(0-t) in data set [18] was found to be 2.34 µg·h/mL. Besides, the time to peak (Tmax) in [31] turned out to be 0.8 h.
On to `CC(C)C[C@](C)(N)COc1ccc(-c2ccnc(C(F)F)c2)c2nncn12`, for which the IC50 in data set [1] is above 0.02 µM.
Consider `CC(C)C[C@](C)(N)COc1ccc(-c2ccnc(C(F)F)c2)n2cncc12`, for which the half-life is 1.85 h in data set [4]; 3.27 h in data set [12]; 2.23 h in [13]; 1.72 h in data set [24]; 2.12 h in [29]; 2.8 h in [34]. In addition, in [5], the Vd is 11 L/kg. In addition, the fraction unbound in [6] is 0.23; in [11] it was 0.195; in data set [25] it was 0.107; in data set [35] it was 0.213. Moreover, the inhibition at 10 µM at CYP3A4 [7] is below 20%; on CYP2D6 it was 81.1%; against CYP3A4 [19] it was below 20%; at CYP2C9 it was below 20%. Further, the bioavailability in data set [15] amounted to 143%. Besides, the area under the curve AUC(0-t) in data set [16] turned out to be 0.318 µg·h/mL; in [18] it was 4.55 µg·h/mL. Besides, the Cmax in [17] stood at 0.706 µg/mL. The compound further showed a clearance in data set [20] of 2.7 L/h/kg. Moreover, the 50% inhibitory concentration (IC50) in data set [21] was determined as 30 µM; in data set [22] it was 43 µM. Moreover, the Tmax in data set [31] stood at 1 h.
